In patent publication US12502379B2, “Ponesimod for avoiding worsening of fatigue-related symptoms in multiple sclerosis patients” (Vanda Pharmaceuticals Inc., priority 2019, dated 2025):

Key:
[1] = Treatment-emergent adverse events, Safety Set
Experimental: A prospective, multicenter, randomized, double-blind, active controlled, parallel-group, phase III, superiority study was conducted.
The Safety Set (SAF) included all randomized subjects who received at least one dose of study treatment. Subjects were analyzed based on actual treatment taken, not randomized treatment.

[2] = system: Patients (18-55 years) with RMS; test: No evidence of disease activity (NEDA-3) status; format: in vivo, human; conditions: PON 20 mg vs TER 14 mg; week 108
Experimental: (§1) In this study, prespecified MRI-based endpoints and no evidence of disease activity (NEDA) status is evaluated.
(§2) Patients (18-55 years) with RMS (expanded disability status scale scores: 0-5.5) were randomized (1:1) to receive ponesimod (PON) 20 mg or teriflunomide (TER) 14 mg for 108 weeks. MRI assessments were: volume of T2 lesions; mean number of new gadolinium-enhancing (Gd+) T1 lesions and new/enlarging T2 lesions; and absence of active MRI lesions at week 108. NEDA-3 status (absence of confirmed relapse, Gd+T1 lesions and new/enlarging T2 lesions on annual MRIs, and 12-week confirmed disability accumulation) was evaluated from baseline to week 108.

[3] = system: adult subjects with relapsing MS; test: Combined unique active lesions (CUAL) on brain MRI from baseline to Week 108; format: in vivo, human
Experimental: (§3) Secondary efficacy variables and testing strategy: Four secondary efficacy endpoints were analyzed as per the statistical testing strategy outlined in FIG. 1. • Change from baseline to Week 108 in fatigue-related symptoms as measured by the symptoms domain of the FSIQ-RMS patient-reported outcome [Fatigue] • Cumulative number of combined unique active lesions from baseline to Week 108 on brain MRI [CUALs] • Time to first 12-week confirmed disability accumulation (CDA) from baseline to EOS on Expanded Disability Status Scale (EDSS) [12-week CDA] • Time to first 24-week CDA from baseline to EOS on EDSS [24-week CDA]
CUAL are new Gd+T1 lesions plus new or enlarging T2 lesions (without double-counting of lesions).
MRI scans were performed at Visits 2 (Baseline), 10 (Week 60), and 14 (EOT) and at any unscheduled visit (U1, U2, etc.). If applicable, MRI scans also were performed at the corresponding visits in the PTOP (Visits 10A and 14A). Testing at all visits were performed up to 7 days prior to or after the visit date.
MRI variables included the number and volume of new and total Gd+ lesions on T1-weighted MRI scans, number of new and enlarging lesions and lesion volume on T2-weighted MRI, and global measures of loss of brain tissue.
T1-weighted imaging before and after i.v. administration of 0.1 mmol/kg body weight (=0.2 mL/kg) of Gd as well as PD-T2-weighted imaging was performed. […]

[4] = ALT increase relative to ULN; format: in vivo, human; conditions: ponesimod 20 mg arm, teriflunomide 14 mg arm
[5] = 12-lead ECG heart rate on Day 1, change from pre-dose; format: in vivo, human
Experimental: As per up-titration regimen, the dose of ponesimod on Day 1 is 2 mg.

[6] = system: adult subjects with relapsing MS; test: Time to first 24-week confirmed disability accumulation (CDA) on EDSS; format: in vivo, human
Experimental: as §3
A 24-week CDA is an increase of at least 1.5 in EDSS for subjects with a baseline EDSS score of 0.0 or an increase of at least 1.0 in EDSS for subjects with a baseline EDSS score of 1.0 to 5.0, or an increase of at least 0.5 in EDSS for subjects with a baseline EDSS score ≥5.5 which is to be confirmed after 24 weeks.
Baseline EDSS is defined as the last EDSS score recorded prior to randomization. The initial EDSS increase, meeting the above criteria, is defined as the onset of disability accumulation.
All EDSS measurements (with or without relapse, at a scheduled or unscheduled visit) were used to determine the onset of disability accumulation. […]

[7] = system: Patients (18-55 years) with RMS; test: Pre-specified MRI endpoints (Example 2); format: in vivo, human; conditions: PON 20 mg vs TER 14 mg; baseline to week 108
Experimental: as §1, §2

[8] = Day 1 (ponesimod dose 2 mg per up-titration), Safety Set, N = 565 / 566
[9] = Safety Set, ponesimod 20 mg N = 565, teriflunomide 14 mg N = 566
[10] = ponesimod 20 mg, teriflunomide 14 mg

CCC/N=C1\S/C(=C\c2ccc(OC[C@H](O)CO)c(Cl)c2)C(=O)N1c1ccccc1C [Ponesimod, (R)-5-[3-chloro-4-(2,3-dihydroxy-propoxy)-benz[Z]ylidene]-2-([Z]-propylimino)-3-o-tolyl-thiazolidin-4-one]
AESI effect on heart rate and rhythm (including hypotension) on Day 1: Subjects with at least one AE [1, 8]: 2.1%
AESI heart rate and rhythm on Day 1, PT: Electrocardiogram QT prolonged [1, 8]: 0 n
AESI heart rate and rhythm on Day 1, PT: Presyncope [1, 8]: 0 n
Subject with at least one AE (treatment-emergent) [1, 9]: 88.8%
Subject with at least one AE leading to study drug discontinuation [1, 9]: 8.7%
Subject with at least one Fatal AE [1, 9]: 0 n
Subject with at least one Serious AE [1, 9]: 8.7%
TEAEs leading to premature discontinuation of study drug, SOC: Reproductive system and breast disorders [1, 9]: 0 n
TEAEs leading to premature discontinuation of study drug, SOC: Surgical and medical procedures [1, 9]: 0 n
Treatment-emergent AESI: Hepatobiliary disorders/Liver enzyme abnormality [1, 9]: 25.7%
Treatment-emergent AESI: Hypertension [1, 9]: 10.1%
Treatment-emergent AESI: Pulmonary events [1, 9]: 8.0%
TEAE: ALT increased [1, 10]: 19.5%
TEAE: headache [1, 10]: 11.5%
TEAE: nasopharyngitis [1, 10]: 19.3%
TEAE: upper respiratory tract infection [1, 10]: 10.6%
NEDA-3, odds ratio (OR) [2]: 1.70
Reduction of the number of CUALs between baseline and week 108 compared to teriflunomide 14 mg ([3]; ponesimod 20 mg): 56%
CUAL treatment effect (Rate Ratio) ([3]; ponesimod 20 mg vs teriflunomide 14 mg, baseline to Week 108): 0.44
Proportion of subjects who experienced ALT increase >3×ULN [4]: 17.3%
Proportion of subjects who experienced ALT increase >8×ULN [4]: 0.7%
Mean heart rate reduction compared to pre-dose (maximum) ([5]; Day 1, 2-hours post dose, ponesimod arm dose on Day 1 is 2 mg): −8.7 bpm
ECG HR effect: time of nadir / maximum mean heart rate reduction post-dose ([5]; Day 1, first dose (ponesimod 2 mg per up-titration)): 2 h
Subjects with asymptomatic post-dose HR≤40 bpm ([5]; Day 1, all had pre-treatment HR<55 bpm): 3
Time to first 24-week CDA, hazard ratio ([6]; ponesimod 20 mg vs teriflunomide 14 mg, stratified Cox regression): 0.84
Reduction of the risk of 24-week CDA compared to teriflunomide 14 mg ([6]; ponesimod 20 mg, not statistically significant): 16%
New Gd+T1 lesions per scan, rate ratio [RR] [7]: 0.42
New/enlarging T2 lesions per year, RR [7]: 0.44
